Several values for one entry are separate records, joined by “and”; a condition that tells them apart may be missing. Identical values can stand only once. Toxic doses and inconclusive results are not listed. How the source made its calls: active means survival T/C of 150% or more; inactive means T/C below 125% in these data.
Test system: P388 leukemia ip, CD2F1 mice, survival T/C
Assay: NCI In Vivo Anticancer Drug Screen. Data for tumor model P388 Leukemia (intraperitoneal) in CD2F1 (CDF1) mice
Conditions: endpoint: median survival time, higher = longer survival
In short: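 Mice carrying the transplanted tumor received test compound or vehicle. Survival was recorded in each group, and the value is the treated-group measurement divided by that of the vehicle-treated control group.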

[1] = dose: 50.0 mg/kg/injection, schedule: Q01DX009 (ip), vehicle: saline with Tween-80
[2] = dose: 100.0 mg/kg/injection, schedule: Q01DX009 (ip), vehicle: saline with Tween-80
[3] = dose: 60.0 mg/kg/injection, schedule: Q01DX005 (ip), vehicle: saline with Tween-80
[4] = dose: 120.0 mg/kg/injection, schedule: Q01DX005 (ip), vehicle: saline with Tween-80
[5] = dose: 240.0 mg/kg/injection, schedule: Q01DX005 (ip), vehicle: saline with Tween-80
[6] = dose: 100.0 mg/kg/injection, schedule: Q01DX001 (ip), vehicle: Klucel (hydroxypropylcellulose) (HPC)
[7] = dose: 200.0 mg/kg/injection, schedule: Q01DX001 (ip), vehicle: Klucel (hydroxypropylcellulose) (HPC)
[8] = dose: 400.0 mg/kg/injection, schedule: Q01DX001 (ip), vehicle: Klucel (hydroxypropylcellulose) (HPC)
[9] = dose: 50.0 mg/kg/injection, schedule: Q01DX009 (ip), vehicle: Klucel (hydroxypropylcellulose) (HPC)
[10] = dose: 100.0 mg/kg/injection, schedule: Q04DX003 (ip), vehicle: saline with Tween-80
[11] = dose: 200.0 mg/kg/injection, schedule: Q04DX003 (ip), vehicle: saline with Tween-80
[12] = dose: 100.0 mg/kg/injection, schedule: Q04DX002 (ip), vehicle: saline with Tween-80
[13] = dose: 200.0 mg/kg/injection, schedule: Q04DX002 (ip), vehicle: saline with Tween-80
[14] = dose: 400.0 mg/kg/injection, schedule: Q04DX002 (ip), vehicle: saline with Tween-80

Measured: T/C

O=c1c(-c2ccccc2)nnc2sc(-c3cccc(Cl)c3)nn12
inactive: dose: 50.0 mg/kg/injection, schedule: Q04DX002 (ip), vehicle: Klucel (hydroxypropylcellulose) (HPC) 98 % of control | dose: 100.0 mg/kg/injection, schedule: Q04DX002 (ip), vehicle: Klucel (hydroxypropylcellulose) (HPC) 93 % of control | dose: 200.0 mg/kg/injection, schedule: Q04DX002 (ip), vehicle: Klucel (hydroxypropylcellulose) (HPC) 90 % of control

C=CC(=O)Nc1ccc2c(c1)OCCOCCOCCO2
inactive: dose: 50.0 mg/kg/injection, schedule: Q01DX005 (ip), vehicle: saline with Tween-80 101 % of control | dose: 100.0 mg/kg/injection, schedule: Q01DX005 (ip), vehicle: saline with Tween-80 102 % of control | dose: 200.0 mg/kg/injection, schedule: Q01DX005 (ip), vehicle: saline with Tween-80 100 % of control

COc1cc(C(C)c2cc3c(cc2OC)OCO3)ccc1OCc1ccccc1 (stereo unspecified)
inactive: dose: 25.0 mg/kg/injection, schedule: Q01DX005 (ip), vehicle: distilled water + Tween-80 103 % of control | dose: 50.0 mg/kg/injection, schedule: Q01DX005 (ip), vehicle: distilled water + Tween-80 99 % of control and 87 % of control | dose: 100.0 mg/kg/injection, schedule: Q01DX005 (ip), vehicle: distilled water + Tween-80 100 % of control | dose: 200.0 mg/kg/injection, schedule: Q01DX005 (ip), vehicle: distilled water + Tween-80 94 % of control

CC(C)CC1N=C(NN=C(CCl)CCl)SP1(=O)NNc1ncccn1 (stereo unspecified)
inactive: dose: 60.0 mg/kg/injection, schedule: Q01DX005 (ip), vehicle: Klucel (hydroxypropylcellulose) (HPC) 100 % of control | dose: 120.0 mg/kg/injection, schedule: Q01DX005 (ip), vehicle: Klucel (hydroxypropylcellulose) (HPC) 100 % of control | dose: 240.0 mg/kg/injection, schedule: Q01DX005 (ip), vehicle: Klucel (hydroxypropylcellulose) (HPC) 113 % of control

O=C(/C=C/c1ccco1)c1ccc(O)c(C(=O)O)c1
inactive: dose: 25.0 mg/kg/injection, schedule: Q01DX009 (ip), vehicle: saline with Tween-80 99 % of control | [1] 105 % of control | [2] 102 % of control

C=C1CCC2C(OC(=O)C2(O)COC(C)=O)C2C(=C)C(O)CC12 (stereo unspecified)
inactive: dose: 10.63 mg/kg/injection, schedule: Q01DX005 (ip), vehicle: Klucel (hydroxypropylcellulose) (HPC) 99 % of control | dose: 21.25 mg/kg/injection, schedule: Q01DX005 (ip), vehicle: Klucel (hydroxypropylcellulose) (HPC) 104 % of control | dose: 42.5 mg/kg/injection, schedule: Q01DX005 (ip), vehicle: Klucel (hydroxypropylcellulose) (HPC) 100 % of control | dose: 85.0 mg/kg/injection, schedule: Q01DX005 (ip), vehicle: Klucel (hydroxypropylcellulose) (HPC) 106 % of control | dose: 170.0 mg/kg/injection, schedule: Q01DX005 (ip), vehicle: Klucel (hydroxypropylcellulose) (HPC) 106 % of control

COc1cc2c(cc1OC)C1N(CC2)C(=O)NC1(C)C (stereo unspecified)
inactive: [3] 97 % of control | [4] 103 % of control | [5] 98 % of control

Cc1[nH]c2ccc(Br)cc2c1/C=N/NC(N)=S
inactive: [6] 101 % of control | [7] 97 % of control | [8] 90 % of control

CN1CCCN(C)C1c1cc([N+](=O)[O-])ccc1O
inactive: dose: 6.25 mg/kg/injection, schedule: Q01DX009 (ip), vehicle: saline sonified 100 % of control | dose: 12.5 mg/kg/injection, schedule: Q01DX009 (ip), vehicle: saline sonified 100 % of control | dose: 25.0 mg/kg/injection, schedule: Q01DX009 (ip), vehicle: saline sonified 100 % of control

CC1=C(CCC(C)NCc2ccc(OCCCN3CCCCC3)cc2)C(C)(C)CCC1 (stereo unspecified)
inactive: dose: 6.25 mg/kg/injection, schedule: Q01DX005 (ip), vehicle: Klucel (hydroxypropylcellulose) (HPC) 104 % of control | dose: 12.5 mg/kg/injection, schedule: Q01DX005 (ip), vehicle: Klucel (hydroxypropylcellulose) (HPC) 98 % of control | dose: 25.0 mg/kg/injection, schedule: Q01DX005 (ip), vehicle: Klucel (hydroxypropylcellulose) (HPC) 104 % of control

Cc1ccc(S(=O)(=O)N/N=C/c2c(-c3ccc(-c4ccccc4)cc3)nc3sccn23)cc1
inactive: [6] 94 % of control | [7] 86 % of control | [8] 88 % of control

Cc1ccc(S(=O)(=O)OCC2(COS(=O)(=O)c3ccc(C)cc3)CCC2)cc1
inactive: [3] 102 % of control | [4] 100 % of control | [5] 100 % of control

O=C(NC1CCCCC1)O/N=C/c1ccc2c(c1)OCO2
inactive: [1] 93 % of control | [2] 86 % of control | dose: 200.0 mg/kg/injection, schedule: Q01DX009 (ip), vehicle: saline with Tween-80 86 % of control

Nc1nc(-c2ccncc2)cc(-c2cc(-c3ccncc3)nc(N)n2)n1
inactive: dose: 60.0 mg/kg/injection, schedule: Q01DX005 (ip), vehicle: saline 102 % of control | dose: 120.0 mg/kg/injection, schedule: Q01DX005 (ip), vehicle: saline 96 % of control

O=C1NC(c2cccc3ccccc23)Nc2ccc(Cl)cc21 (stereo unspecified)
inactive: dose: 12.5 mg/kg/injection, schedule: Q01DX009 (ip), vehicle: Klucel (hydroxypropylcellulose) (HPC) 113 % of control | dose: 25.0 mg/kg/injection, schedule: Q01DX009 (ip), vehicle: Klucel (hydroxypropylcellulose) (HPC) 123 % of control | [9] 123 % of control

C#CCCCCCC#CCCCCCC#CC(=O)O
inactive: dose: 100.0 mg/kg/injection, schedule: Q01DX001 (ip), vehicle: saline 104 % of control | dose: 200.0 mg/kg/injection, schedule: Q01DX001 (ip), vehicle: saline 101 % of control

O=P(c1ccccc1)(c1ccccc1)c1ccccc1OCCOCCOc1ccccc1P(=O)(c1ccccc1)c1ccccc1
inactive: dose: 50.0 mg/kg/injection, schedule: Q01DX005 (ip), vehicle: Klucel (hydroxypropylcellulose) (HPC) 100 % of control | dose: 100.0 mg/kg/injection, schedule: Q01DX005 (ip), vehicle: Klucel (hydroxypropylcellulose) (HPC) 91 % of control | dose: 200.0 mg/kg/injection, schedule: Q01DX005 (ip), vehicle: Klucel (hydroxypropylcellulose) (HPC) 99 % of control

C=C1CCN(c2ccccc2Cl)C1=O
inactive: dose: 4.0 mg/kg/injection, schedule: Q01DX009 (ip), vehicle: saline + alcohol 100 % of control and 103 % of control and 109 % of control | dose: 8.0 mg/kg/injection, schedule: Q01DX009 (ip), vehicle: saline + alcohol 100 % of control and 104 % of control and 106 % of control | dose: 16.0 mg/kg/injection, schedule: Q01DX009 (ip), vehicle: saline + alcohol 100 % of control and 112 % of control | dose: 32.0 mg/kg/injection, schedule: Q01DX009 (ip), vehicle: saline + alcohol 99 % of control and 100 % of control and 107 % of control | dose: 64.0 mg/kg/injection, schedule: Q01DX009 (ip), vehicle: saline + alcohol 104 % of control and 105 % of control

CC(C)OC(=O)Nc1nc2ccc(C(=O)OC(C)C)cc2[nH]1
inactive: dose: 50.0 mg/kg/injection, schedule: Q04DX003 (ip), vehicle: saline with Tween-80 102 % of control | [10] 104 % of control and 116 % of control | [11] 112 % of control and 113 % of control

Cc1cc(C)cc(C(C)(C)C)c1
inactive: [10] 100 % of control | [11] 100 % of control

O/N=C\C(=N/O)c1ccc(O)c(O)c1
inactive: [12] 107 % of control | [13] 108 % of control | [14] 102 % of control

OC1c2ccccc2-c2ccccc2C1O (stereo unspecified)
inactive: [12] 101 % of control and 102 % of control | [13] 101 % of control and 97 % of control | [14] 101 % of control

COC(=O)C12CC=CCC1(C(=O)OC)CC=CC2 (stereo unspecified)
inactive: [9] 101 % of control | dose: 100.0 mg/kg/injection, schedule: Q01DX009 (ip), vehicle: Klucel (hydroxypropylcellulose) (HPC) 100 % of control | dose: 200.0 mg/kg/injection, schedule: Q01DX009 (ip), vehicle: Klucel (hydroxypropylcellulose) (HPC) 102 % of control

Source: PubChem BioAssay AID330 (DTP/NCI, 2004)
